Entries after “also recorded” stand apart in the source; their conditions may differ.
Assay: Pharmacokinetic evaluation of aripiprazole in rats following single subcutaneous doses of aripiprazole formulations
Format: in vivo, Sprague-Dawley rats
Details: rat, single SC injection of 10, 20 or 30 mg bulk drug in 0.75 mL diluent (3% CMC, 0.1% Tween 20, 0.9% NaCl); plasma 2 h to 28 d; versus microspheres with 30% or 50% load
Procedure: Experimental: Pharmacokinetic Evaluation of Aripiprazole in Rats Following Administration of Single Subcutaneous Doses of Aripiprazole Formulations. Species and Strain: Sprague-Dawley rats. Male; 450 +/−50 grams. Study Groups: 5 Groups, 15 subjects • Group A: three rats injected once SC with 10 mg of Aripiprazole. • Group B: three rats injected once SC with 20 mg of Aripiprazole. • Group C: three rats injected once SC with 30 mg of Aripiprazole. • Group D: three rats injected once SC with ˜67 mg of microparticles. • Group E: three rats injected once SC with ˜40 mg of microparticles. […] Route of Injection: Subcutaneous (SC) injection into the interscapular region. Injection Vehicle: Aqueous diluent containing 3% CMC (low viscosity), 0.1% Tween 20, in 0.9% NaCl and water. Dose Volumes: Suspensions were formulated as follows: • Group A: 10 mg powder in 0.75 mL Diluent • Group B: 20 mg powder in 0.75 mL Diluent • Group C: 30 mg powder in 0.75 mL Diluent • Group D: ˜67 mg microparticles in 0.75 mL Diluent • Group E: 40 mg microparticles in 0.75 mL Diluent Blood Collection: Blood samples were collected via a lateral tail vein after anesthesia with Halothane. A syringe without an anticoagulant was used for the blood collection, then the whole blood was transferred to tubes containing K2 EDTA and mixing beads (MICROTAINER®; MFG# BD365974). […]

O=C1CCc2ccc(OCCCCN3CCN(c4cccc(Cl)c4Cl)CC3)cc2N1 [aripiprazole, Aripiprazole]
plasma release profile of SC bolus injection compared with aripiprazole-containing PLGA microspheres: substantially the same; also recorded: extended release profile similar to that obtained by the injection of a poly lactide-co-glycolide microsphere formulation

Reference: patent US8338428B2, “Methods for administering aripiprazole” (Alkermes, Inc., priority 2003, dated 2012)
